Earlier results as cited in paper PMC4346355 (Journal of computer-aided molecular design, 2014).
pEC50, pIC50, pKd: −log10 of the molar value. Where two headings read alike, the source gives them in different places.

Tests used:
[1] = tested on: strand transfer activity of HIV integrase
[2] = tested on: interaction of LEDGF with integrase
[3] = tested on: HIV-1 infection of MT-4 cells; settings: read-out: EC50 HIV-1 infection of MT-4 cells
[4] = tested on: HIV-1 infection of PBMC cells; settings: read-out: EC50 HIV-1 infection of PBMC cells
[5] = target: HIV integrase catalytic core domain core4H (additional Y131D mutation); settings: read-out: SPR KD (core4H)
[6] = target: LEDGF-integrase interaction; settings: assay not named

**Q.** With `COc1cccc2c1c(/C(O)=C/C(=O)C(=O)O)cn2Cc1ccc(F)cc1` [CHI-1043] as the compound, how does the “inhibition in active site directed strand transfer assay” value [1] read?
**A.** The value was 0.14 µM.

**Q.** What about the “inhibition in AlphaScreen assay for binding at the LEDGF site” value [2] of the same compound?
**A.** Its value is 36 µM.

**Q.** With `CCCC(C(=O)O)c1c(C)nc2ccc(Cl)cc2c1-c1ccccc1` (centres unmarked) [CX04328] as the compound, how does the pIC50 ([1]; read-out: IC50 inhibition of strand transfer activity) read?
**A.** The pIC50 was 4.71.

**Q.** And the pEC50 [3]?
**A.** The pEC50 was 5.56.

**Q.** And the pIC50 ([2]; assay not given, series assayed in AlphaScreen)?
**A.** The pIC50 was 5.86.

**Q.** And the pEC50 [4]?
**A.** The pEC50 was 5.46.

**Q.** With `C=CCN(Cc1ccccc1C(=O)NCc1ccccc1)Cc1ccc2c(c1C(=O)O)OCO2` [Compound 3ZSX] as the compound, how does the pKd [5] read?
**A.** Its pKd is 2.97.

**Q.** With `CN(Cc1ccccc1C(=O)NCC1CCCCC1)Cc1ccc2c(c1C(=O)O)OCO2` [Compound 3ZSY] as the compound, how does the pKd [5] read?
**A.** Its pKd is under 2.70.

**Q.** With `CC[C@H](C)NC(=O)c1ccccc1CN(C)Cc1ccc2c(c1C(=O)O)OCO2` [Compound 3ZSZ] as the compound, how does the pKd [5] read?
**A.** The pKd was under 2.70.

**Q.** Which results are given for `O=C(NCC1CCCCC1)c1cc(S(=O)(=O)N2CCCCC2)cc(O)c1O` [N-(cyclohexylmethyl)-2,3-dihydroxy-5-(piperidin-1-ylsulfonyl) benzamide]?
**A.** pIC50 ([1]; read-out: IC50 strand transfer): 4.72; pIC50 [6]: 5.10
